{
  "source": "patent US20050037089A1",
  "about": "“Method for promoting bone growth” (priority 2003, published 2005)",
  "origin": "cited, not measured here",
  "data": [
    {"smiles": "CC[C@H](C)[C@H](NC(=O)[C@H](CCC(=O)O)NC(=O)[C@H](CO)NC(=O)[C@@H](NC(=O)[C@@H](N)CO)C(C)C)C(=O)N[C@@H](CCC(N)=O)C(=O)N[C@@H](CC(C)C)C(=O)N[C@@H](CCSC)C(=O)N[C@@H](Cc1cnc[nH]1)C(=O)N[C@@H](CC(N)=O)C(=O)N[C@@H](CC(C)C)C(=O)NCC(=O)N[C@@H](CCCCN)C(=O)N[C@@H](Cc1cnc[nH]1)C(=O)N[C@@H](CC(C)C)C(=O)N[C@@H](CC(N)=O)C(=O)N[C@@H](CO)C(=O)N[C@@H](CCSC)C(=O)N[C@@H](CCC(=O)O)C(=O)N[C@@H](CCCN=C(N)N)C(=O)N[C@H](C(=O)N[C@@H](CCC(=O)O)C(=O)N[C@@H](Cc1c[nH]c2ccccc12)C(=O)N[C@@H](CC(C)C)C(=O)N[C@@H](CCCN=C(N)N)C(=O)N[C@@H](CCCCN)C(=O)N[C@@H](CCCCN)C(=O)N[C@@H](CC(C)C)C(=O)N[C@@H](CCC(N)=O)C(=O)N[C@@H](CC(=O)O)C(=O)N[C@H](C(=O)N[C@@H](Cc1cnc[nH]1)C(=O)N[C@@H](CC(N)=O)C(=O)N[C@@H](Cc1ccccc1)C(=O)O)C(C)C)C(C)C", "note": "[hPTH(1-34)]", "values": [
      {"measurement": "bone formation", "setting": "patients with osteoporosis, subcutaneous administration", "value": "increase bone formation"},
      {"measurement": "bone density", "setting": "postmenopausal women, daily subcutaneous administration of 20 μg or 40 μg", "value": "increase bone density"}
    ]}
  ]
}
